# Laboratory results published in patent US20230348426A1, “OXOPYRROLIDINE FPR2 AGONISTS” (Bristol-Myers Squibb Company, priority 2020, published 2023).
# Key:
# human FPR1 = human FPR1 (Homo sapiens (Human), UniProt P21462); test: FPR1 cyclic adenosine monophosphate (cAMP) assay; format: cell-based; conditions: CHO cells overexpressing human FPR1; forskolin 10 µM; inhibition of cAMP production; read-out: hFPR1 cAMP EC50
# How it was run: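 CHO cells overexpressing human FPR1 (4,000 cells/well) stimulated with 10 µM forskolin plus 200 µM IBMX in the presence of compound (0.020 nM–100 µM, 1% DMSO), 30 min at room temperature. Intracellular cAMP measured by HTRF. Inhibition of cAMP production fitted to a 4-parameter logistic equation.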
# human FPR2 = human FPR2 (Homo sapiens (Human), UniProt P25090); test: FPR2 cyclic adenosine monophosphate (cAMP) assay; format: cell-based; conditions: CHO cells overexpressing human FPR2; forskolin 5 µM; inhibition of cAMP production; read-out: hFPR2 cAMP2 EC50
# human FPR2, sequence (P25090 whole entry): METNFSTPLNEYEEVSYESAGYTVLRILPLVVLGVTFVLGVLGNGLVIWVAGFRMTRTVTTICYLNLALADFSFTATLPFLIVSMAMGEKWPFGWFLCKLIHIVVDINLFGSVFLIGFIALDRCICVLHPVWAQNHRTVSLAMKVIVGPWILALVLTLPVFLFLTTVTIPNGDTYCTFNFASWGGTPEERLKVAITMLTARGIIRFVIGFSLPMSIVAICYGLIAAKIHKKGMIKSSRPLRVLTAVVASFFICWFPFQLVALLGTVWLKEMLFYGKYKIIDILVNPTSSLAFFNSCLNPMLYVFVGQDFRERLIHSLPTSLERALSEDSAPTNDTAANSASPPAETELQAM
# How it was run: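 CHO cells overexpressing human FPR2 (2,000/well) incubated 30 min at room temperature with compound (0.020 nM–100 µM, 1% DMSO), 5 µM forskolin and 200 µM IBMX.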
# human FPR1, sequence (P21462 whole entry): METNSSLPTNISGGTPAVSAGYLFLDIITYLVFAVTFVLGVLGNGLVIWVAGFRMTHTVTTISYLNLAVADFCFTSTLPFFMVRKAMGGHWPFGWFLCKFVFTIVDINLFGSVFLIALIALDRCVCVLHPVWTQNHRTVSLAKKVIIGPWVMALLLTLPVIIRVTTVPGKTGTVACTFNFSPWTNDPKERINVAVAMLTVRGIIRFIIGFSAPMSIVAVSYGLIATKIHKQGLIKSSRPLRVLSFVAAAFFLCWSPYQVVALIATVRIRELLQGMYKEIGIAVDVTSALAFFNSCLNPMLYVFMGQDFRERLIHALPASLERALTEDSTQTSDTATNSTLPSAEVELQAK
Structure (SMILES),EC50 (human FPR1),EC50 (human FPR2)
COCC(C(=O)N(C)C)n1cccc(N2C[C@@H](c3ccc(OC)cc3F)[C@H](NC(=O)c3ccc(OC(F)F)cc3)C2=O)c1=O (stereo partly shown) [Example 428],8 nM,9 nM
COc1ccc([C@@H]2CN(c3cccn(CC(OC)C(F)(F)F)c3=O)C(=O)[C@H]2NC(=O)c2ccc(OC(F)(F)F)cc2)cc1 (stereo partly shown) [Example 433],1 nM,1.8 nM
COc1cc(N2C[C@@H](c3c(F)cc(OC)cc3F)[C@H](NC(=O)c3ccc(Cl)cc3)C2=O)nc(N2C[C@@H]3C[C@H]2CN3C)c1 [Example 40],2600 nM,0.6 nM
COc1cc(F)c([C@@H]2CN(c3cccnc3OC3CCOC3)C(=O)[C@H]2NC(=O)c2ccc(OC(F)(F)F)cc2)c(F)c1 (stereo partly shown) [Example 235],84 nM,6.5 nM
COCC(CO)n1cccc(N2C[C@@H](c3ccc(OC)cc3)[C@H](NC(=O)c3ccc(OC(F)(F)F)cc3)C2=O)c1=O (stereo partly shown) [Example 136],2.2 nM,3.5 nM
COCC(C(=O)N(C)C)n1cccc(N2C[C@@H](c3c(F)cc(OC)cc3F)[C@H](NC(=O)c3ccc(OC(F)F)cc3)C2=O)c1=O (stereo partly shown) [Example 172],39 nM,4.5 nM
COc1cc(F)c([C@@H]2CN(c3cccn(CCC(F)(F)F)c3=O)C(=O)[C@H]2NC(=O)c2ccc(OC(F)F)cc2)c(F)c1 [Example 241],38 nM,6.6 nM
COc1ccc([C@@H]2CN(c3c(C)ccn(CCC(F)(F)F)c3=O)C(=O)[C@H]2NC(=O)c2ccc(Cl)cc2)cc1 [Example 386],1 nM,2.4 nM
COc1cc(F)c([C@@H]2CN(c3nc(N4CC(C)OCC4=O)ccc3F)C(=O)[C@H]2NC(=O)c2ccc(OC(F)F)cc2)c(F)c1 (stereo partly shown) [Example 216],270 nM,5.7 nM
COc1cc(F)c([C@@H]2CN(c3c(Cl)ccn(C)c3=O)C(=O)[C@H]2NC(=O)c2ccc(OC(F)F)cc2)c(F)c1 [Example 286],130 nM,8.5 nM
COc1cc(F)c([C@@H]2CN(c3cc(Cl)cn(C)c3=O)C(=O)[C@H]2NC(=O)c2ccc(Cl)cc2)c(F)c1 [Example 189],3400 nM,5 nM
COc1ccc([C@@H]2CN(c3c(C)ccn(CCC(F)(F)F)c3=O)C(=O)[C@H]2NC(=O)c2ccc(OC(F)F)cc2)c(F)c1 [Example 402],3 nM,2.8 nM
COCCNc1ccnc(N2C[C@@H](c3c(F)cc(OC)cc3F)[C@H](NC(=O)c3ccc(Cl)cc3)C2=O)c1C(F)(F)F [Example 410],3300 nM,11.7 nM
COc1cc(F)c([C@@H]2CN(c3cnn4c3OCCC4)C(=O)[C@H]2NC(=O)c2ccc(Cl)cc2)c(F)c1 [Example 596],860 nM,43.7 nM
COc1cc(NCCO)nc(N2C[C@@H](c3c(F)cc(OC)cc3F)[C@H](NC(=O)c3ccc(Cl)cc3)C2=O)c1 [Example 106],870 nM,2.9 nM
COc1ccc([C@@H]2CN(c3c(C)ccn(C4CCOC4)c3=O)C(=O)[C@H]2NC(=O)c2ccc(OC(F)(F)F)cc2)cc1 (stereo partly shown) [Example 704],1 nM,2.4 nM
COc1cc(F)c([C@@H]2CN(c3cncn(CCO)c3=O)C(=O)[C@H]2NC(=O)c2ccc(OC(F)F)cc2)c(F)c1 [Example 488],790 nM,2.6 nM
O=C(N[C@@H]1C(=O)N(c2cccn(CC(F)F)c2=O)C[C@H]1c1ccc(Cl)cc1)c1ccc(OC(F)(F)F)cc1 [Example 69],4.2 nM,1.9 nM
COc1cc(F)c([C@@H]2CN(c3cccn(CCN4CC5(COC5)C4)c3=O)C(=O)[C@H]2NC(=O)c2ccc(OC(F)F)cc2)c(F)c1 [Example 164],290 nM,4.2 nM
COc1cc(F)c([C@@H]2CN(c3cccn(C4CCOC4)c3=O)C(=O)[C@H]2NC(=O)c2ccc(OC(F)F)cc2)c(F)c1 (stereo partly shown) [Example 320],44 nM,10 nM
COc1ccc([C@@H]2CN(c3c(C)ccn(C4COC4)c3=O)C(=O)[C@H]2NC(=O)c2ccc(OC(F)(F)F)cc2)cc1 [Example 578],6 nM,1.5 nM
CCn1cccc(N2C[C@@H](c3c(F)cc(OC)cc3F)[C@H](NC(=O)c3ccc(C)cc3)C2=O)c1=O [Example 215],41 nM,5.6 nM
COc1ccc([C@@H]2CN(c3c(C)ccn(CC4CC4)c3=O)C(=O)[C@H]2NC(=O)c2ccc(Cl)cc2)cc1 [Example 385],1 nM,7.1 nM
COCCOc1ncccc1N1C[C@@H](c2c(F)cc(OC)cc2F)[C@H](NC(=O)c2ccc(Cl)cc2)C1=O [Example 413],120 nM,0.6 nM
COCCn1ccc(C)c(N2C[C@@H](c3c(F)cc(OC)cc3F)[C@H](NC(=O)c3ccc(OC(F)(F)F)cc3)C2=O)c1=O [Example 185],0.7 nM,4.8 nM

Structure (SMILES),EC50 (human FPR1),EC50 (human FPR2)
COc1cc(F)c([C@@H]2CN(c3c(C)ccn(C4CCS(=O)(=O)C4)c3=O)C(=O)[C@H]2NC(=O)c2ccc(OC(F)F)cc2)c(F)c1 (stereo partly shown) [Example 701],27 nM,12 nM
COc1cc(C2CCN(C)CC2)nc(N2C(=O)[C@@H](NC(=O)c3ccc(OC(F)F)cc3)[C@H](c3c(F)cc(OC)cc3F)[C@@H]2C)c1 [Example 538],2000 nM,1.3 nM
COc1cc(F)c([C@@H]2CN(c3c(C)ccn(CC4CCOCC4)c3=O)C(=O)[C@H]2NC(=O)c2ccc(OC(F)F)cc2)c(F)c1 [Example 457],2 nM,3.2 nM
COc1cc(F)c([C@@H]2CN(c3c(C)ccn(CC4CCOC4)c3=O)C(=O)[C@H]2NC(=O)c2ccc(OC(F)(F)F)cc2)c(F)c1 (stereo partly shown) [Example 697],6.7 nM,3.6 nM
COc1cc(F)c([C@@H]2CN(c3cc(C)cc(N4C[C@@H]5C[C@H]4CN5C)n3)C(=O)[C@H]2NC(=O)c2ccc(OC(F)(F)F)cc2)c(F)c1 [Example 571],580 nM,6 nM
CCn1ccc(N2C[C@@H](c3c(F)cc(OC)cc3F)[C@H](NC(=O)c3ccc(Cl)cc3)C2=O)n1 [Example 647],22 nM,1.5 nM
COc1cc(F)c([C@@H]2CN(c3ncccc3F)C(=O)[C@H]2NC(=O)c2ccc(OC(F)F)cc2)c(F)c1 [Example 33],1610 nM,5 nM
COCC(C(=O)N1C[C@@H]2C[C@H]1CO2)n1cccc(N2C[C@@H](c3c(F)cc(OC)cc3F)[C@H](NC(=O)c3ccc(OC(F)(F)F)cc3)C2=O)c1=O (stereo partly shown) [Example 363],3 nM,0.8 nM
COCCn1ncc(C)c(N2C[C@@H](c3c(F)cc(OC)cc3F)[C@H](NC(=O)c3ccc(OC(F)F)cc3)C2=O)c1=O [Example 658],1.7 nM,3.4 nM
COCCn1cccc(N2C[C@@H](c3c(F)cc(OC)cc3F)[C@H](NC(=O)c3ccc(OC(F)F)cc3)C2=O)c1=O [Example 36],30 nM,5.5 nM
COc1cc(F)c([C@@H]2CN(c3c4c(cn(CCO)c3=O)CCCC4)C(=O)[C@H]2NC(=O)c2ccc(OC(F)F)cc2)c(F)c1 [Example 646],670 nM,16 nM
COc1cc(F)c([C@@H]2CN(c3cccn4c(C)nnc34)C(=O)[C@H]2NC(=O)c2ccc(OC(F)F)cc2)c(F)c1 [Example 599],40 nM,4.1 nM
COc1cc(F)c([C@@H]2CN(c3cccn(CC(O)CO)c3=O)C(=O)[C@H]2NC(=O)c2ccc(Cl)cc2)c(F)c1 (stereo partly shown) [Example 680],780 nM,2.8 nM
COc1cc(F)c([C@@H]2CN(c3cccn(CC(C)O)c3=O)C(=O)[C@H]2NC(=O)c2ccc(OC(F)F)cc2)c(F)c1 (stereo partly shown) [Example 141],29 nM,3.6 nM
COc1ccc([C@@H]2CN(c3c(C)ccn(C4CCOC4)c3=O)C(=O)[C@H]2NC(=O)c2ccc(OC(F)F)cc2)cc1 (stereo partly shown) [Example 265],1.5 nM,7.6 nM
COc1cc(F)c([C@@H]2CN(c3cccn(CC(C)(CO)CO)c3=O)C(=O)[C@H]2NC(=O)c2ccc(OC(F)(F)F)cc2)c(F)c1 [Example 187],38 nM,4.9 nM
CCn1ccc(C)c(N2C[C@@H](c3ccc(OC)cc3F)[C@H](NC(=O)c3ccc(OC(F)F)cc3)C2=O)c1=O [Example 165],1.7 nM,4.2 nM
COc1cc(F)c([C@@H]2CN(c3cccn(CC(C)O)c3=O)C(=O)[C@H]2NC(=O)c2ccc(OC(F)(F)F)cc2)c(F)c1 (stereo partly shown) [Example 89],45 nM,2.4 nM
COc1cc(F)c([C@@H]2CN(c3c(C)ccn(CC#N)c3=O)C(=O)[C@H]2NC(=O)c2ccc(OC(F)(F)F)cc2)c(F)c1 [Example 595],13 nM,2.4 nM
CCn1cccc(N2C[C@@H](c3ccc(OC)cc3F)[C@H](NC(=O)c3ccc(OC(F)F)cc3)C2=O)c1=O [Example 83],7.6 nM,2.2 nM
COc1cc(F)c([C@@H]2CN(c3cccn(C4CCOC4)c3=O)C(=O)[C@H]2NC(=O)c2ccc(OC(F)F)cc2)c(F)c1 (stereo partly shown) [Example 201],18 nM,5.3 nM
Cc1ccn(CC2CC2)c(=O)c1N1C[C@@H](c2ccc(Cl)cc2)[C@H](NC(=O)c2ccc(OC(F)F)cc2)C1=O [Example 442],1 nM,9.6 nM
COCC(CO)n1cccc(N2C[C@@H](c3ccc(Cl)cc3)[C@H](NC(=O)c3ccc(Cl)cc3)C2=O)c1=O (stereo partly shown) [Example 406],9 nM,2.9 nM
COc1cc(F)c([C@@H]2CN(c3nc(N4C(=O)C5CCCC54)ccc3F)C(=O)[C@H]2NC(=O)c2ccc(OC(F)F)cc2)c(F)c1 (stereo partly shown) [Example 119],67 nM,3.1 nM
CCn1cccc(N2C[C@@H](c3c(F)cc(OC)cc3F)[C@H](NC(=O)c3ccc(C#N)cc3)C2=O)c1=O [Example 319],200 nM,10 nM
